Measured values as given in ChEMBL document CHEMBL1201862, “PubChem BioAssay data set” (2004).
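The compound was tested at five concentrations on cells cultured in 96-well plates, with a 48-hour exposure period. The concentration for 50% growth inhibition is given as GI50.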 Activity calls are given as the source filed them. Cut-off read from the data, not from the text of the source: active = GI50 up to about 1.1 µM and inactive = higher.

Experiments:
Test in all cases: inhibition of tumour cell growth, NCI panel, 48 h
RPMI-8226 = tested on: RPMI-8226
SK-OV-3 = tested on: SK-OV-3
OVCAR-5 = tested on: OVCAR-5
UACC-257 = tested on: UACC-257
MOLT-4 = tested on: MOLT-4
SK-MEL-5 = tested on: SK-MEL-5
UO-31 = tested on: UO-31
A498 = tested on: A498
SN12C = tested on: SN12C
DU-145 = tested on: DU-145
OVCAR-4 = tested on: OVCAR-4
IGROV-1 = tested on: IGROV-1
MCF7 = tested on: MCF7
TK-10 = tested on: TK-10
UACC-62 = tested on: UACC-62
SW-620 = tested on: SW-620
CAKI-1 = tested on: CAKI-1
HT-29 = tested on: HT-29
SR = tested on: SR

Structure (SMILES) | GI50 (RPMI-8226) | GI50 (SK-OV-3) | GI50 (OVCAR-5) | GI50 (UACC-257) | GI50 (MOLT-4) | GI50 (SK-MEL-5) | GI50 (UO-31) | GI50 (A498) | GI50 (SN12C) | GI50 (DU-145) | GI50 (OVCAR-4) | GI50 (IGROV-1) | GI50 (MCF7) | GI50 (TK-10) | GI50 (UACC-62) | GI50 (SW-620) | GI50 (CAKI-1) | GI50 (HT-29) | GI50 (SR)
CC(C)=CCC[C@H](C)[C@H]1CC[C@@H](C)c2cc(O)c(C)cc21 | 26.1 µM (inactive) | 19.1 µM (inactive) | 16.1 µM (inactive) | 17.4 µM (inactive) | 21.4 µM (inactive) | 16.2 µM (inactive) | 14 µM (inactive) | 16.6 µM (inactive) | 15.9 µM (inactive) | 19.5 µM (inactive) | 15.5 µM (inactive) | 17.1 µM (inactive) | 17.5 µM (inactive) | 18.4 µM (inactive) | 14.5 µM (inactive) | 23.1 µM (inactive) | 15.7 µM (inactive) | 20.6 µM (inactive) | –
COc1cc(CNc2nc3ccccc3n2Cc2ccccc2)cc(CN2CCOCC2)c1O | 91 µM (inactive) | 96.8 µM (inactive) | 26.5 µM (inactive) | 20.1 µM (inactive) | 53.8 µM (inactive) | 18.6 µM (inactive) | 18.2 µM (inactive) | 21.1 µM (inactive) | 44.2 µM (inactive) | 80.9 µM (inactive) | 61.4 µM (inactive) | 52 µM (inactive) | 31.7 µM (inactive) | 23.9 µM (inactive) | 22.9 µM (inactive) | 45.6 µM (inactive) | 26.2 µM (inactive) | 23.3 µM (inactive) | –
COc1cccc(Nc2nc3c([nH]2)c(=O)n(C)c(=O)n3C)c1 | > 10 µM (inactive) | > 10 µM (inactive) | – | > 10 µM (inactive) | > 10 µM (inactive) | > 10 µM (inactive) | – | – | > 10 µM (inactive) | > 10 µM (inactive) | > 10 µM (inactive) | > 10 µM (inactive) | > 10 µM (inactive) | > 10 µM (inactive) | > 10 µM (inactive) | > 10 µM (inactive) | > 10 µM (inactive) | > 10 µM (inactive) | > 10 µM (inactive)
O=C(CSc1nc2ccc(Cl)cc2c(=O)n1-c1ccccc1)N/N=C1\C(=O)Nc2ccc(F)cc21 | 1.77 µM (inactive) | 8.34 µM (inactive) | 2.9 µM (inactive) | 3.56 µM (inactive) | 2.88 µM (inactive) | 3.13 µM (inactive) | 0.189 µM (active) | 2.38 µM (inactive) | 2.08 µM (inactive) | 2.16 µM (inactive) | 2.16 µM (inactive) | 2.17 µM (inactive) | 2.1 µM (inactive) | 4.21 µM (inactive) | 2.39 µM (inactive) | 2.33 µM (inactive) | 4.81 µM (inactive) | 2.2 µM (inactive) | –
O=C(n1c(=O)n(-c2ccc([N+](=O)[O-])cc2)c(=O)n1C(=O)C(Cl)(Cl)Cl)C(Cl)(Cl)Cl | > 100 µM (inactive) | > 100 µM (inactive) | > 100 µM (inactive) | > 100 µM (inactive) | > 10 µM (inactive) | > 100 µM (inactive) | > 100 µM (inactive) | > 100 µM (inactive) | > 100 µM (inactive) | > 100 µM (inactive) | > 100 µM (inactive) | > 100 µM (inactive) | 87.3 µM (inactive) | > 100 µM (inactive) | > 100 µM (inactive) | > 100 µM (inactive) | > 100 µM (inactive) | > 100 µM (inactive) | –
CCOC(=O)[C@@H]1C[C@@H]1c1ccc(O)c(O)c1 | 18.1 µM (inactive) | 44.8 µM (inactive) | > 100 µM (inactive) | 39.2 µM (inactive) | 6.18 µM (inactive) | 14.4 µM (inactive) | 10.7 µM (inactive) | – | 78.2 µM (inactive) | 64 µM (inactive) | – | 35.3 µM (inactive) | 16.9 µM (inactive) | > 100 µM (inactive) | 13.4 µM (inactive) | 14.3 µM (inactive) | 38.1 µM (inactive) | 50.2 µM (inactive) | 14.5 µM (inactive)
